Data on one sequence can be found in patent EP4692107A1, “PEPTIDE HAVING SKIN CONDITION IMPROVEMENT ACTIVITY AND USE THEREOF” (Caregen Co., Ltd., priority 2023, dated 2026).

What all share (format): cell-based
One test relates to collagen type 1. The experiment in a line: Extracellular matrix expression by immunofluorescence (confocal, Image J): collagen type 1. The conditions noted are these: human dermal fibroblasts; peptide at 10 µM, 50 µM or 100 µM, 48 hours; green fluorescence intensity; maximum increase (FIG. 2). Here is the method:
(§1) To confirm the effect of a peptide consisting of the amino acid sequence of SEQ ID NO: 1 on increasing the expression of the dermal extracellular matrix. Specifically, human dermal fibroblasts were seeded in a 6-well plate at a density of 3x10^5 cells/well and cultured for 24 hours. After replacing with serum-free mesenchymal stem cell medium, the cells were cultured for 24 hours. A peptide was treated at concentrations of 10 µM, 50 µM, or 100 µM, respectively, and incubated at 37 °C for 48 hours. Human recombinant FGF protein was treated at 100 nM. After the culture was completed, the culture supernatant was removed and fixed with 4 % paraformaldehyde for 30 minutes. After washing with PBS, the cells were reacted with 0.5 % Triton X-100 for 15 minutes. After reacting with 3 % BSA for 1 hour, primary antibodies against collagen type 1, fibronectin, and elastin were diluted 1:100 and reacted overnight at 4 °C. Secondary antibody-FITC was diluted 1:500 and reacted at room temperature for 2 hours, followed by DAPI staining and mounting. The expression images of each marker were observed using a confocal microscope (Leica, Germany). Green fluorescence intensity was measured using Image J.
(§2) The results are illustrated in FIG. 2. […]

For a further test, the system named is human dermal fibroblasts. Kind of test: Fibroblast proliferation effect (SRB staining, absorbance at 560 nm). Particulars: peptide at 10 µM, 50 µM or 100 µM, 72 hours, 37 °C, concentration-dependent, maximum increase (FIG. 1). As to the method:
To confirm the effect of a peptide consisting of the amino acid sequence of SEQ ID NO: 1 on promoting the proliferation of Fibroblasts. Specifically, human dermal fibroblasts were seeded in a 96-well plate at a density of 5x10^3 cells/well and cultured for 24 hours. After replacing with serum-free mesenchymal stem cell medium, the cells were cultured for 24 hours. The above peptide was treated at concentrations of 10 µM, 50 µM, or 100 µM, respectively, and incubated at 37 °C for 72 hours. As a positive control group, 50 nM of human recombinant FGF protein was treated. After completion of culturing, the culture supernatant was removed and the cells were fixed using ethanol. After washing with PBS, staining was performed by treating with SRB solution. After washing with 1 % acetic acid, cells were observed under a microscope and destained by treating with 20 mM tris solution. Cell viability was measured by measuring absorbance at a wavelength of 560 nm using a spectrophotometer (SpectraMax iD3, Molecular Devices (USA, CA)).
The results are illustrated in FIG. 1. From the results of FIG. 1, it may be confirmed that proliferation was induced in a concentration-dependent manner in the peptide treatment group, increasing by up to 1.62 times.
For orientation: The SRB assay estimates cell density from bound dye.

In a further test the test system is fibronectin. The experiment in a line: Extracellular matrix expression by immunofluorescence (confocal, Image J): fibronectin. Particulars: human dermal fibroblasts; peptide at 10 µM, 50 µM or 100 µM, 48 hours; green fluorescence intensity; maximum increase (FIG. 2). Here is the method:
as §1, §2

A further test relates to elastin. Kind of test: Extracellular matrix expression by immunofluorescence (confocal, Image J): elastin. Particulars: human dermal fibroblasts; peptide at 10 µM, 50 µM or 100 µM, 48 hours; green fluorescence intensity; maximum increase (FIG. 2). As to the method: as §1, §2

For AERRREKCRC [peptide], the “collagen type 1 expression increase compared to the control group” value with collagen type 1 is given as “up to 1.32 times”. For the same sequence, the proliferation increase entry in the test with human dermal fibroblasts is on record as “up to 1.62 times”. Besides, the “fibronectin expression increase compared to the control group” value in the test on fibronectin is on record as “up to 1.38 times”. The “elastin expression increase compared to the control group” value with elastin is recorded as “up to 2 times”.
